Reference: publication PMC7156458, “Synthetic biology based construction of biological activity-related library of fungal decalin-containing diterpenoid pyrones” (Nature Communications, 2020)

Target: Aβ42 (Homo sapiens, UniProt P05067)
Test: Th-T (thioflavin-T) assay of Aβ42 aggregation
Assay type: biochemical
Conditions: for Th-T fluorescence of Aβ42 with compound, mean of three wells (Fig. 7a source data): concentration 50, unit not given

Aβ42, sequence (P05067 672-713): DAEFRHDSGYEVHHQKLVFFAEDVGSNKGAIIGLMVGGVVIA

## C=C1CCC2C(C)(CCC=C(C)C)C(O)CCC2(C)C1Cc1c(OC)oc(CO)c(C(=O)OC)c1=O (stereo not drawn) [Compound 13]
time-course reading M143
  Th-T fluorescence of Aβ42 with compound, mean of three wells (Fig. 7a source data): 0.478
time-course reading M144
  Th-T fluorescence of Aβ42 with compound, mean of three wells (Fig. 7a source data): 0.478
time-course reading M145
  Th-T fluorescence of Aβ42 with compound, mean of three wells (Fig. 7a source data): 0.4736
Head suffix _10 (concentration 10), reading M63
  Th-T fluorescence of Aβ42 (sheet Fig. 7a), mean of three wells: 1.556
Head suffix _10 (concentration 10), reading M64
  Th-T fluorescence of Aβ42 (sheet Fig. 7a), mean of three wells: 1.557
Head suffix _10 (concentration 10), reading M65
  Th-T fluorescence of Aβ42 (sheet Fig. 7a), mean of three wells: 1.551
Head suffix _10 (concentration 10), reading M66
  Th-T fluorescence of Aβ42 (sheet Fig. 7a), mean of three wells: 1.553
Head suffix _10 (concentration 10), reading M67
  Th-T fluorescence of Aβ42 (sheet Fig. 7a), mean of three wells: 1.558
Head suffix _10 (concentration 10), reading M68
  Th-T fluorescence of Aβ42 (sheet Fig. 7a), mean of three wells: 1.564
Head suffix _10 (concentration 10), reading M69
  Th-T fluorescence of Aβ42 (sheet Fig. 7a), mean of three wells: 1.56
Head suffix _10 (concentration 10), reading M70
  Th-T fluorescence of Aβ42 (sheet Fig. 7a), mean of three wells: 1.554
Head suffix _10 (concentration 10), reading M71
  Th-T fluorescence of Aβ42 (sheet Fig. 7a), mean of three wells: 1.549
Head suffix _10 (concentration 10), reading M72
  Th-T fluorescence of Aβ42 (sheet Fig. 7a), mean of three wells: 1.561
Head suffix _10 (concentration 10), reading M73
  Th-T fluorescence of Aβ42 (sheet Fig. 7a), mean of three wells: 1.566
Head suffix _10 (concentration 10), reading M74
  Th-T fluorescence of Aβ42 (sheet Fig. 7a), mean of three wells: 1.559
Head suffix _10 (concentration 10), reading M75
  Th-T fluorescence of Aβ42 (sheet Fig. 7a), mean of three wells: 1.561
Head suffix _10 (concentration 10), reading M76
  Th-T fluorescence of Aβ42 (sheet Fig. 7a), mean of three wells: 1.555
Head suffix _10 (concentration 10), reading M77
  Th-T fluorescence of Aβ42 (sheet Fig. 7a), mean of three wells: 1.558
Head suffix _10 (concentration 10), reading M78
  Th-T fluorescence of Aβ42 (sheet Fig. 7a), mean of three wells: 1.561
Head suffix _10 (concentration 10), reading M79
  Th-T fluorescence of Aβ42 (sheet Fig. 7a), mean of three wells: 1.5579
Head suffix _10 (concentration 10), reading M80
  Th-T fluorescence of Aβ42 (sheet Fig. 7a), mean of three wells: 1.555
Head suffix _10 (concentration 10), reading M81
  Th-T fluorescence of Aβ42 (sheet Fig. 7a), mean of three wells: 1.559
Head suffix _10 (concentration 10), reading M82
  Th-T fluorescence of Aβ42 (sheet Fig. 7a), mean of three wells: 1.556
Head suffix _10 (concentration 10), reading M83
  Th-T fluorescence of Aβ42 (sheet Fig. 7a), mean of three wells: 1.5605
Head suffix _10 (concentration 10), reading M84
  Th-T fluorescence of Aβ42 (sheet Fig. 7a), mean of three wells: 1.551
Head suffix _20 (concentration 20), reading M63
  Th-T fluorescence of Aβ42 (sheet Fig. 7a), mean of three wells: 1.031
Head suffix _20 (concentration 20), reading M64
  Th-T fluorescence of Aβ42 (sheet Fig. 7a), mean of three wells: 1.035
Head suffix _20 (concentration 20), reading M65
  Th-T fluorescence of Aβ42 (sheet Fig. 7a), mean of three wells: 1.042
Head suffix _20 (concentration 20), reading M66
  Th-T fluorescence of Aβ42 (sheet Fig. 7a), mean of three wells: 1.05
Head suffix _20 (concentration 20), reading M67
  Th-T fluorescence of Aβ42 (sheet Fig. 7a), mean of three wells: 1.057
Head suffix _20 (concentration 20), reading M68
  Th-T fluorescence of Aβ42 (sheet Fig. 7a), mean of three wells: 1.061
Head suffix _20 (concentration 20), reading M69
  Th-T fluorescence of Aβ42 (sheet Fig. 7a), mean of three wells: 1.053
Head suffix _20 (concentration 20), reading M70
  Th-T fluorescence of Aβ42 (sheet Fig. 7a), mean of three wells: 1.058
Head suffix _20 (concentration 20), reading M71
  Th-T fluorescence of Aβ42 (sheet Fig. 7a), mean of three wells: 1.058
Head suffix _20 (concentration 20), reading M72
  Th-T fluorescence of Aβ42 (sheet Fig. 7a), mean of three wells: 1.061
Head suffix _20 (concentration 20), reading M73
  Th-T fluorescence of Aβ42 (sheet Fig. 7a), mean of three wells: 1.063
Head suffix _20 (concentration 20), reading M74
  Th-T fluorescence of Aβ42 (sheet Fig. 7a), mean of three wells: 1.057
Head suffix _20 (concentration 20), reading M75
  Th-T fluorescence of Aβ42 (sheet Fig. 7a), mean of three wells: 1.056
Head suffix _20 (concentration 20), reading M76
  Th-T fluorescence of Aβ42 (sheet Fig. 7a), mean of three wells: 1.058
Head suffix _20 (concentration 20), reading M77
  Th-T fluorescence of Aβ42 (sheet Fig. 7a), mean of three wells: 1.059
Head suffix _20 (concentration 20), reading M78
  Th-T fluorescence of Aβ42 (sheet Fig. 7a), mean of three wells: 1.0603
Head suffix _20 (concentration 20), reading M79
  Th-T fluorescence of Aβ42 (sheet Fig. 7a), mean of three wells: 1.056
Head suffix _20 (concentration 20), reading M80
  Th-T fluorescence of Aβ42 (sheet Fig. 7a), mean of three wells: 1.0496
Head suffix _20 (concentration 20), reading M81
  Th-T fluorescence of Aβ42 (sheet Fig. 7a), mean of three wells: 1.051
Head suffix _20 (concentration 20), reading M82
  Th-T fluorescence of Aβ42 (sheet Fig. 7a), mean of three wells: 1.061
Head suffix _20 (concentration 20), reading M83
  Th-T fluorescence of Aβ42 (sheet Fig. 7a), mean of three wells: 1.058
Head suffix _20 (concentration 20), reading M84
  Th-T fluorescence of Aβ42 (sheet Fig. 7a), mean of three wells: 1.053
Head suffix _50 (concentration 50), reading M63
  Th-T fluorescence of Aβ42 (sheet Fig. 7a), mean of three wells: 0.4695
Head suffix _50 (concentration 50), reading M64
  Th-T fluorescence of Aβ42 (sheet Fig. 7a), mean of three wells: 0.467
Head suffix _50 (concentration 50), reading M65
  Th-T fluorescence of Aβ42 (sheet Fig. 7a), mean of three wells: 0.4693
Head suffix _50 (concentration 50), reading M66
  Th-T fluorescence of Aβ42 (sheet Fig. 7a), mean of three wells: 0.4724
Head suffix _50 (concentration 50), reading M67
  Th-T fluorescence of Aβ42 (sheet Fig. 7a), mean of three wells: 0.4748
Head suffix _50 (concentration 50), reading M68
  Th-T fluorescence of Aβ42 (sheet Fig. 7a), mean of three wells: 0.4706
Head suffix _50 (concentration 50), reading M69
  Th-T fluorescence of Aβ42 (sheet Fig. 7a), mean of three wells: 0.4713
Head suffix _50 (concentration 50), reading M70
  Th-T fluorescence of Aβ42 (sheet Fig. 7a), mean of three wells: 0.4681
Head suffix _50 (concentration 50), reading M71
  Th-T fluorescence of Aβ42 (sheet Fig. 7a), mean of three wells: 0.4721
Head suffix _50 (concentration 50), reading M72
  Th-T fluorescence of Aβ42 (sheet Fig. 7a), mean of three wells: 0.4741
